Laboratory results from patent EP4332093A1, “SALT CONTAINING PIPERAZINE POLYCYCLIC DERIVATIVE, CRYSTAL FORM THEREOF, PREPARATION METHOD THEREFOR, AND USE THEREOF” (Shanghai Hansoh Biomedical Co., Ltd., priority 2021, dated 2022).
Like-named read-outs stand apart in the source and are kept apart here.

How the values were obtained:
[1] = target: T1, D3 receptor (Homo sapiens, UniProt P35462); experiment: cAMP content in cells stably expressing D3 receptors (CHO-D3, forskolin, HTRF); type: cell-based
T1 construct: expressed in transfected cells

[2] = Pharmacokinetic assay in Balb/c mice (plasma and brain tissue); type: in vivo; conditions: male, mouse, po, p.o. 5 mg/kg; for AUC(0-t): read-out: Area under curve AUC0-t; for Tmax: read-out: Peak time tmax; for Cmax: read-out: Plasma concentration Cmax; for AUC(0-inf): read-out: Area under curve AUC0-∞; for MRT: read-out: Average residence time MRT; for half-life: read-out: Half life t1/2 (converted)
Summary of the method: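 Fasted male Balb/c mice (12 per group) received 5 mg/kg p.o. in 0.5% CMC-Na/1% Tween80. Plasma and whole brain were collected […]. Compound was quantified by LC/MS/MS after acetonitrile precipitation, with PK parameters from noncompartmental analysis.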

[3] = target: 5-HT2A receptor (Homo sapiens, UniProt P28223); experiment: Calcium ion mobility in cells stably expressing 5-HT2A receptors (Flp-In-CHO-5HT2A, FLIPR); type: cell-based; design: expressed in transfected cells; conditions: Flp-In-CHO-5HT2A stable pool, 5HT stimulation
5-HT2A receptor, sequence (P28223 whole entry): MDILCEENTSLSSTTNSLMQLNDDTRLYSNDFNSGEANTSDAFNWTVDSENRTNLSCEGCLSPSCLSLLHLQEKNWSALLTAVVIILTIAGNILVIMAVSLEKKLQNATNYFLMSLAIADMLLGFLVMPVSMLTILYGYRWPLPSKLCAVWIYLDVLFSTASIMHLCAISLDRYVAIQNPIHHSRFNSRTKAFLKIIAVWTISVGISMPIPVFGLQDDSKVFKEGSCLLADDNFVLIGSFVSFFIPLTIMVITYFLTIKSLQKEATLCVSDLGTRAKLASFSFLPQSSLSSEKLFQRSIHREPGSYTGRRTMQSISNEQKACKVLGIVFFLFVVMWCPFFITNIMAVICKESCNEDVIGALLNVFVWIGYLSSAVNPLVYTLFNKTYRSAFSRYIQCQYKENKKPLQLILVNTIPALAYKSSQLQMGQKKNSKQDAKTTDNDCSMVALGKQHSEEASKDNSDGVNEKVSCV

T1 sequence (P35462 whole entry): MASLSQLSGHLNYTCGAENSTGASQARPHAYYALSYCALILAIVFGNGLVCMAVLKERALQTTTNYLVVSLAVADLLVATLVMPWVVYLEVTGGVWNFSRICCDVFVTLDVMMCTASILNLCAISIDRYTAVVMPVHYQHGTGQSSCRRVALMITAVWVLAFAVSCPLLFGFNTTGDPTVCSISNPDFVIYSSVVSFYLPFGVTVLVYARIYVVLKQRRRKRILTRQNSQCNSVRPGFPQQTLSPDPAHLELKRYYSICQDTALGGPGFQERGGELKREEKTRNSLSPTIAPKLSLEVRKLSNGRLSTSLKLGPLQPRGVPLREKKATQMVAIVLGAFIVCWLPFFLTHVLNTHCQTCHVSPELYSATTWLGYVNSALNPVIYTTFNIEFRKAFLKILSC

Compound | EC50 [1] [nM] | AUC(0-t) ([2]; Brain) [ng·h/mL] | Tmax ([2]; Brain) [h] | Cmax ([2]; Brain) [ng/mL] | AUC(0-t) ([2]; Plasma) [ng·h/mL] | AUC(0-inf) ([2]; Plasma) [ng·h/mL] | MRT ([2]; Plasma) [h] | half-life ([2]; Plasma) [min] | Tmax ([2]; Plasma) [h] | Cmax ([2]; Plasma) [ng/mL] | IC50 [3] [nM] | AUC(0-inf) ([2]; Brain) [ng·h/mL]
O=C(N[C@H]1C[C@H](CCN2CCN(c3cccc(Cl)c3Cl)CC2)C1)C1(O)CC1 [Example 6A, N-(Trans-3-(2-(4-(2,3-dichlorophenyl)piperazin-1-yl)ethyl)cyclobutyl)-1-hydroxycy clopropane-1-carboxamide] | 0.6 | 1080 | 1 | 321 | 1420 | 1440 | 1.8 | 78 | 0.5 | 745 | 3.07 | 
O=C(N[C@H]1C[C@H](CCN2CCN(c3cccc(Cl)c3Cl)CC2)C1)c1nccs1 [Example 7A, N-(Trans-3-(2-(4-(2,3-dichlorophenyl)piperazin-1-yl)ethyl)cyclobutyl)thiazole-2-car boxamide] | 1 | 1350 | 1 | 179 | 395 | 501 | 5.3 | 222 | 1 | 102 | 2.74 | 
O=C(NC1CC(CCN2CCN(c3cccc(Cl)c3Cl)CC2)C1)c1ncco1 (stereo not shown) [Example 12, N-(3-(2-(4-(2,3-Dichlorophenyl)piperazin-1-yl)ethyl)cyclobutyl)oxazole-2-carboxamide] | 1.7 | 4830 | 1 | 1200 | 1040 | 1230 | 3.9 | 168 | 0.5 | 391 | 5.2 | 4880
O=C(N[C@H]1C[C@H](CCN2CCN(c3cccc(Cl)c3Cl)CC2)C1)c1ncco1 [Example 12A, N-(Trans-3-(2-(4-(2,3-dichlorophenyl)piperazin-1-yl)ethyl)cyclobutyl)oxazole-2-car boxamide] | 0.6 | 8130 | 1 | 1760 | 1840 | 1970 | 3.1 | 114 | 0.5 | 673 | 2.21 | 
O=C(N[C@H]1C[C@@H](CCN2CCN(c3cccc(Cl)c3Cl)CC2)C1)c1ncco1 [Example 12B, N-(Cis-3-(2-(4-(2,3-dichlorophenyl)piperazin-1-yl)ethyl)cyclobutyl)oxazole-2-carbo xamide] | 0.7 | 5200 | 1 | 1870 | 1620 | 1710 | 2.4 | 108 | 0.5 | 715 | 11.6 | 
O=C(N[C@H]1C[C@H](CCN2CCN(c3cccc(Cl)c3Cl)CC2)C1)c1cccc2ncccc12 [Example 19A, N-(Trans-3-(2-(4-(2,3-dichlorophenyl)piperazin-1-yl)ethyl)cyclobutyl)quinoline-5-c arboxamide] | 1.6 | 1240 | 1 | 372 | 456 | 471 | 1.8 | 102 | 0.5 | 349 | 7.67 | 
